Data from ChEMBL document CHEMBL3046762, “Synthesis and biological evaluation of 2-amino-5-sulfanyl-1,3,4-thiadiazole derivatives as antidepressant, anxiolytics and anticonvulsant agents” (2011).
Active and inactive are the calls of the source. No cut-off for these calls is given here.

Tests used:
Mus musculus [1] = assay: Anxiolytic activity in Mus musculus balb/cj (mouse) assessed as preference to open arm at 30 mg/kg, ip measured after 30 min by elevated pluze maze test; format: functional; details: route intraperitoneal
Rattus norvegicus [2] = assay: Anticonvulsant activity in Rattus norvegicus Wistar albino (rat) assessed as inhibition of pentyleneterazole-induced clonic convulsion measured as onset of convulsion at 30 mg/kg, ip pretreated 30 min prior to pentylenetetrazole challenge (reference value: 48.25 +/- 0.01 sec); format: functional; details: route intraperitoneal
Mus musculus [3] = assay: Antidepressant activity in Mus musculus (mouse) assessed as increase in mobile phase at 30 mg/kg, ip measured after 30 min by tail suspension test; format: functional; details: route intraperitoneal
Rattus norvegicus [4] = assay: Anticonvulsant activity in Rattus norvegicus Wistar albino (rat) assessed as reduction in pentyleneterazole-induced mortality at 30 mg/kg, ip pretreated 30 min prior to pentylenetetrazole challenge; format: functional, organism-based; parameters: dose 30 mg/kg
Mus musculus [5] = assay: Anxiolytic activity in Mus musculus Swiss (mouse) assessed as time spent in light chamber at 30 mg/kg, ip measured after 30 min by light and dark model test (reference value: 130.2 +/- 0.01 sec); format: functional; details: route intraperitoneal
Mus musculus [6] = assay: Antidepressant activity in Mus musculus (mouse) assessed as decrease in immobility at 30 mg/kg, ip measured after 30 min by despair swim test; format: functional; details: 0.5 h, route intraperitoneal
Mus musculus [7] = assay: Anxiolytic activity in Mus musculus balb/cj (mouse) assessed as time spent in open arm at 30 mg/kg, ip measured after 30 min by elevated pluze maze test (reference value: 12.25 +/- 0.02 sec); format: functional; details: route intraperitoneal
Rattus norvegicus [8] = assay: Anticonvulsant activity in Rattus norvegicus Wistar albino (rat) assessed as duration of tonic hind limb extensor at 30 mg/kg, ip measured after 30 min by maximal electroshock-induced convulsion test (reference value: 15.71 +/- 0.01 sec); format: functional, Hindlimb; details: route intraperitoneal
Rattus norvegicus [9] = assay: Anticonvulsant activity in Rattus norvegicus Wistar albino (rat) assessed as protection against maximal electroshock-induced convulsion at 30 mg/kg, ip measured after 30 min; format: functional; details: route intraperitoneal
Mus musculus [10] = assay: Antidepressant activity in Mus musculus (mouse) assessed as decrease in immobility at 15 mg/kg, ip measured after 30 min by despair swim test; details: 0.5 h, read-out: INH
Mus musculus [11] = assay: Anxiolytic activity in Mus musculus balb/cj (mouse) assessed as time spent in open arm at 2 mg/kg, ip measured after 30 min by elevated pluze maze test (reference value: 12.25 +/- 0.02 sec); format: functional; details: route intraperitoneal
Rattus norvegicus [12] = assay: Anticonvulsant activity in Rattus norvegicus Wistar albino (rat) assessed as protection against maximal electroshock-induced convulsion at 25 mg/kg, ip measured after 30 min; format: functional; details: route intraperitoneal
Rattus norvegicus [13] = assay: Anticonvulsant activity in Rattus norvegicus Wistar albino (rat) assessed as duration of tonic hind limb extensor at 25 mg/kg, ip measured after 30 min by maximal electroshock-induced convulsion test; format: functional, organism-based; parameters: dose 25 mg/kg; details: Hindlimb
Rattus norvegicus [14] = assay: Anticonvulsant activity in Rattus norvegicus Wistar albino (rat) assessed as reduction in pentyleneterazole-induced mortality at 4 mg/kg, ip pretreated 30 min prior to pentylenetetrazole challenge; format: functional, organism-based; parameters: dose 4 mg/kg

| Compound | Activity (Mus musculus [1]) [%] | Time (Rattus norvegicus [2]) [s] | Activity (Mus musculus [3]) [%] | Activity (Rattus norvegicus [4]) | Time (Mus musculus [5]) [s] | inhibition in vivo at 30 mg/kg (Mus musculus [6]) [%] | Time (Mus musculus [7]) [s] | Time (Rattus norvegicus [8]) [s] | Activity (Rattus norvegicus [9]) [%] | inhibition in vivo at 15 mg/kg (Mus musculus [10]) [%] | Time (Mus musculus [11]) [s] | Activity (Rattus norvegicus [12]) [%] | Activity (Rattus norvegicus [13]) | Activity (Rattus norvegicus [14]) |
| --- | --- | --- | --- | --- | --- | --- | --- | --- | --- | --- | --- | --- | --- | --- |
| O=S(=O)(Cl)c1ccc(Sc2nnc(Nc3ccc(Cl)cc3)s2)cc1 | 9.75 | 63.6 | 15.68 | Active | 151.5 | 23.9 | 30.01 | 7.55 | 16.66 | – | – | – | – | – |
| O=S(=O)(Cl)c1ccc(Sc2nnc(Nc3ccc(C(F)(F)F)cc3)s2)cc1 | 18.92 | 180.25 | 45.97 | Active | 192 | 53.5 | 47.92 | 4.42 | 66.66 | – | – | – | – | – |
| NS(=O)(=O)c1ccc(Sc2nnc(Nc3ccc(S(=O)(=O)Cl)cc3)s2)cc1 | 17.2 | 175.2 | 40.58 | Active | 180.25 | 50.4 | 45.93 | 4.69 | 50 | – | – | – | – | – |
| Cc1ccc(Nc2nnc(Sc3ccc(S(N)(=O)=O)cc3)s2)cc1 | 18.25 | 170.26 | 42.21 | Active | 190.25 | 51.5 | 45.69 | 4.52 | 50 | – | – | – | – | – |
| O=S(=O)(Cl)c1ccc(Nc2nnc(Sc3ccc(S(=O)(=O)Cl)cc3)s2)cc1 | 7.9 | 125.2 | 10.09 | Active | 172.5 | 25.9 | 27.63 | 8.5 | 0 | – | – | – | – | – |
| CNCCC(Oc1ccc(C(F)(F)F)cc1)c1ccccc1.Cl (stereo not drawn) [FLUOXETINE HYDROCHLORIDE] | – | – | – | – | – | – | – | – | – | 58.6 | 60.01 | – | – | – |
| Cc1ccc(Nc2nnc(Sc3ccc(S(=O)(=O)Cl)cc3)s2)cc1 | 7.58 | 101.26 | 15.19 | Active | 169.25 | 29.2 | 22.2 | 8.01 | 16.66 | – | – | – | – | – |
| O=S(=O)(Cl)c1ccc(Sc2nnc(Nc3ccc(F)cc3)s2)cc1 | 10.54 | 101.26 | 21.51 | Active | 166.3 | 22.8 | 25.26 | 8.25 | 0 | – | – | – | – | – |
| NS(=O)(=O)c1ccc(Nc2nnc(Sc3ccc(S(N)(=O)=O)cc3)s2)cc1 | 6.65 | – | 10.06 | – | 133.2 | 25.2 | 26.64 | 8.25 | 0 | – | – | – | – | – |
| O=C1NC(=O)C(c2ccccc2)(c2ccccc2)N1 [PHENYTOIN] | – | – | – | – | – | – | – | – | – | – | – | 100 | Active | – |
| NS(=O)(=O)c1ccc(Sc2nnc(Nc3ccc(Br)cc3)s2)cc1 | 8.01 | 71.9 | 15.68 | Active | 162.3 | 27.2 | 29.26 | 8.01 | 33.33 | – | – | – | – | – |
| CN1C(=O)CN=C(c2ccccc2)c2cc(Cl)ccc21 | – | – | – | – | – | – | – | – | – | – | – | – | – | Active |
| NS(=O)(=O)c1ccc(Sc2nnc(Nc3ccc(Cl)cc3)s2)cc1 | 16.35 | 151.3 | 33.33 | Active | 178.2 | 29.2 | 45.51 | 5.17 | 50 | – | – | – | – | – |
| O=S(=O)(Cl)c1ccc(Sc2nnc(Nc3ccc(Br)cc3)s2)cc1 | 9.25 | 70.25 | 20.57 | Active | 159.3 | 30.7 | 25.2 | 7.63 | 0 | – | – | – | – | – |
| NS(=O)(=O)c1ccc(Sc2nnc(Nc3ccc(C(F)(F)F)cc3)s2)cc1 | 8.92 | 126.2 | 31.29 | Active | 151.26 | 27.9 | 23.72 | 7.37 | 33.33 | – | – | – | – | – |
| NS(=O)(=O)c1ccc(Sc2nnc(Nc3ccc(C(Cl)(Cl)Cl)cc3)s2)cc1 | 7.85 | 106.7 | 16.39 | Active | 162 | 25 | 24.2 | 6.96 | 16.66 | – | – | – | – | – |
| NS(=O)(=O)c1ccc(Sc2nnc(Nc3ccc(F)cc3)s2)cc1 | 18.01 | 171.25 | 40.31 | Active | 185.9 | 50.5 | 46.31 | 4.5 | 66.66 | – | – | – | – | – |
| O=S(=O)(Cl)c1ccc(Sc2nnc(Nc3ccc(C(Cl)(Cl)Cl)cc3)s2)cc1 | 8.75 | 99.9 | 19.16 | Active | 170.5 | 30.2 | 26.2 | 7.01 | 16.66 | – | – | – | – | – |
